# In paper PMC3006138, “Fexinidazole – A New Oral Nitroimidazole Drug Candidate Entering Clinical Development for the Treatment of Sleeping Sickness” (PLoS Neglected Tropical Diseases, 2010):
# Tests used:
# African trypanosomes = test: In vitro activity against African trypanosomes (summary); type: cell-based; settings: Trypanosoma brucei, laboratory strains and recent clinical isolates
# Procedure: Parasites were cultured with or without the test article at a concentration of 3×10^4/mL in Minimal Essential Medium, according to Baltz et al., with the following modifications: 0.2 mM 2-mercaptoethanol, 1 mM Na-pyruvate, 0.5 mM hypoxanthine and 15% heat inactivated horse serum at 37°C in 5% CO2 in 96-well microtitre plates for 72 h. 10 µL of Alamar Blue was added for the final 3 h to determine viability. The assay was assessed by reading the fluorescence in each well at an excitation wavelength of 536 nm and at an emission wavelength of 588 nm. The IC50 values were calculated from the sigmoidal inhibition curves. For cytotoxicity, 4×10^4/mL L-6 rat skeletal myoblast cells were used, and incubations and assessments carried out as above.
# [1] = Hepatocyte intrinsic clearance and metabolite profile; type: in vitro ADME, human; settings: human
# Procedure: Fexinidazole was incubated with cryopreserved hepatocytes from male CD-1 mice, male Sprague Dawley rats, male beagle dogs, male cynomolgus monkeys, and from pooled white or African-American human donor samples (purchased commercially), at concentrations of 1 µM and 10 µM. […] The incubated samples were analyzed by LC-MS after extraction into acetonitrile.
# Fexinidazole sulfoxide, lot 1106-I-0170, 99.3% purity, and fexinidazole sulfone, lot 1106-I-0171, 99.9% purity, were provided by the Sponsor.
# Cryopreserved hepatocytes of five single donors, lots EHI, REL, KSE […]
# ZIJ and MRS, were purchased from In Vitro Technologies Inc (Baltimore, Maryland, USA).
# The certificates of analysis are reported in Appendix 1.
# Reagents and solvents were of analytical grade and obtained from Sigma-Aldrich (St. Louis, […]
# 7.5. In Vitro Incubations
# On the day of the experiment a 10 mM stock solution of fexinidazole in DMSO was prepared and, within 3 hours, aliquots of this freshly prepared solution, after suitable dilution, were added to the incubation matrix, to reach fexinidazole final concentrations of 1 and 10 µM. The final percentage of DMSO was 0.01% in the incubation samples for the […]
# The cryopreserved hepatocytes were thawed according to the supplier’s procedure and the number of viable cells was determined using the Trypan Blue exclusion method. Viabilities were 92% for lot EHI, 89% for lot REL, 82% for lot KSE, 86% for lot ZIJ and 86% for lot MRS in the intrinsic clearance study. In the metabolite profile study viabilities were 91% for lot EHI, 90% for lot REL, 85% for lot KSE, 84% for lot ZIJ and 87% for lot MRS.
# Afterwards, the same amount of viable cells for each donor were pooled and used for the incubations of fexinidazole.
# 7.5.1. Intrinsic Clearance Study […]
# µM with pooled human hepatocytes (1 million cells/mL) in a final incubation volume of 1 mL Leibovitz L-15 medium, at 37°C. Incubations were performed in duplicate in a 48-well plate under shaking. Sampling was performed using an automatic liquid handling system (Multiprobe II EX, Packard). At 0, 1, 5, 10, 15, 20, 30, 60 and 120 minutes, 50 µL aliquots of the incubates were taken, then 80 µL of ice-cold acetonitrile and 20 µL of 1 µM warfarin in acetonitrile (internal standard) were added, and samples centrifuged at 2000 rpm for 20 min. The supernatant was analyzed by LC-MS/MS. […]
# The chemical stability of fexinidazole was checked by incubating the compound at 37°C in the medium alone at t = 0 and 120 minutes.
# For the determination of phase I and phase II activities of hepatocytes, 7-ethoxycoumarin (7-ETC) 1 µM, and 7-hydroxycoumarin (7-HC) 30 µM were used as positive controls and incubated under the same conditions as fexinidazole. Aliquots of incubates were taken at 0, 1, 5, 10, 15, 20, 30, 60 and 120 minutes and processed as fexinidazole samples.
# 7.5.2. Metabolite Profile Study
# For metabolite profiling, fexinidazole was incubated at a concentration of 10 µM with pooled human hepatocytes (1 million cells/mL) in a final incubation volume of 2 mL Leibovitz L-15 medium, at 37°C. Aliquots of the incubation samples were taken at t = 0, 30 and 120 minutes; the metabolism was stopped by the addition of an equal volume of cold acetonitrile and the samples centrifuged at 1100 rpm for 20 min. The supernatant was stored at -20°C until analysis. Control incubations were performed with the compound in the medium alone for 120 minutes.
# 7.6. Analysis of the Samples of Intrinsic Clearance Study
# The analysis of the samples for intrinsic clearance determination was performed by an LC-MS/MS method, using the following conditions:
# HPLC Equipment and Conditions
# HPLC system 1100 binary pump (Agilent, Palo Alto, USA)
# Autosampler 2777 (Waters)
# Analytical column Guard Column SB-C8 4.6 x 12.5 mm, 5 µm (Zorbax)
# Column temperature ambient
# Mobile phase A 10 mM ammonium formate pH 4.0: acetonitrile (95:5, v:v)
# Mobile phase B 10 mM ammonium formate pH 4.0: acetonitrile (5:95, v:v) […]
# Gradient conditions Step Total time (min) flow (µL/min) %A % B […]
# rat liver cells = test: Ex vivo unscheduled DNA synthesis; type: in vivo
# Procedure: Groups of young male Sprague-Dawley rats received fexinidazole at doses of 500, 1000, or 2000 mg/kg orally, and the livers were sampled either 2–4 h or 12–14 h after administration. Hepatocyte suspensions were prepared and incubated in the presence of […] thymidine. Slides of fixed hepatocytes were coated in photographic emulsion and stored for 14 days at 4°C in the dark. The silver grains above the nuclei or cytoplasm (background) were counted, providing a measure of DNA uptake during DNA repair. The difference between these two counts indicated the extent of DNA repair (nuclear net grain count).
# [2] = parameters: method as in ref 2 (report no. 0259-2007-R); settings: oral, normalized to 1 mg/kg, previous rat study, ref 2 (report no. 0259-2007-R); cited from earlier work
compound,measurement,setting,value
"CSc1ccc(OCc2ncc([N+](=O)[O-])n2C)cc1 [Fexinidazole, 1-methyl-2-((p-(methylthio)phenoxy)methyl)-5-nitroimidazole]",IC50,African trypanosomes,0.1 to 0.8 µg/mL
same,half-life at 1 µM,[1],6.5 min
same,CLint scaled at 1 µM,[1]; read-out: CLint in vitro,257 mL/min/kg
same,hepatocyte CLint at 1 µM,[1]; read-out: CLint in vitro,107 µL/min/1e6 cells
same,Net nuclear grain count (2–4 h),rat liver cells; 500 mg/kg po,0.0
same,Net nuclear grain count (12–14 h),rat liver cells; 500 mg/kg po,0.4
same,Net nuclear grain count (2–4 h),rat liver cells; 1000 mg/kg po,−0.1
same,Net nuclear grain count (12–14 h),rat liver cells; 1000 mg/kg po,0.5
same,Net nuclear grain count (2–4 h),rat liver cells; 2000 mg/kg po,−0.4
same,Net nuclear grain count (12–14 h),rat liver cells; 2000 mg/kg po,0.2
same,UDS study result,"rat liver cells; rat, in vivo",confirmed the lack of mammalian genotoxic activity
same,"AUC0-∞, norm",[2],45 ng⋅h/mL
